Test results taken from patent US8664387B2, “Pyridoquinazolinone M1 receptor positive allosteric modulators” (Merck Sharp & Dohme Corp., priority 2009, dated 2014).

target: T1, acetylcholine muscarinic M1 receptor (Homo sapiens, UniProt P11229); test: muscarinic FLIPR calcium assay, M1 positive allosteric modulation; assay type: cell-based; details: CHOnfat/hM1 cells, FLIPR intracellular Ca2+, 4 min preincubation, then EC20 acetylcholine (3 nM final); read-out: IP Value (inflection point)
T1 construct: expressed in transfected cells; host or cells: CHOnfat cells (CHOnfat/hM1; geneticin selection)
T1 sequence (P11229 1-460): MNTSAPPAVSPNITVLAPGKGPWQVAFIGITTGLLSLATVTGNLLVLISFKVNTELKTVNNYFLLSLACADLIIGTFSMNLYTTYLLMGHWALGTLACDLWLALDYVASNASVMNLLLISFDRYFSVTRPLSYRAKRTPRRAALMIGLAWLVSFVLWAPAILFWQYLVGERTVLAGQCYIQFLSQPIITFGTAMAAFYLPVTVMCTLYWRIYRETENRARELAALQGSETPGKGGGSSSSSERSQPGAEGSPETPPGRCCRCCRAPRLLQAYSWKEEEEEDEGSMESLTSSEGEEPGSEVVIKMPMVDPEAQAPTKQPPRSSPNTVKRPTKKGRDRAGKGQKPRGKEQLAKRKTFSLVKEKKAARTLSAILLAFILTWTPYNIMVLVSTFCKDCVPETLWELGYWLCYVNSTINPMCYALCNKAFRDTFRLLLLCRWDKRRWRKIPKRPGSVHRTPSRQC
Procedure: The assay studies the effect of one or several concentrations of test compounds on basal or acetylcholine-stimulated Ca^2+ levels using FLIPR.
Compounds are prepared and subjected to a preincubation period of 4 min. Thereafter, a single EC20 concentration of acetylcholine is added to each well (3 nM final). The intracellular Ca^2+ level of each sample is measured and compared to an acetylcholine control to determine any modulatory activity.
Cells: CHOnfat/hM1, hM2, hM3 or hM4 cells are plated 24 hr before the assay at a density of 18,000 cells/well (100 μL) in a 384 well plate. CHOnfat/hM1 and CHOnfat/hM3 Growth Medium: 90% DMEM (Hi Glucose); 10% HI FBS; 2 mM L-glutamine; 0.1 mM NEAA; Pen-Strep; and 1 mg/ml Geneticin, are added. For M2Gqi5CHOnfat and M4Gqi5CHOnfat cells, an additional 600 ug/ml hygromycin is added.
Equipment: 384 well plate, 120 μL addition plate; 96-well Whatman 2 ml Uniplate Incubator, 37° C., 5% CO2; Skatron EMBLA-384 Plate Washer; Multimek Pipetting System; Genesis Freedom 200 System; Mosquito System; Temo Nanoliter Pipetting System; and FLIPR^384 Fluorometric Imaging Plate Reader System are used.
Buffers. Assay Buffer: Hanks Balanced Salt Solution, with 20 mM Hepes, 2.5 mM Probenecid (Sigma P-8761) first dissolved in 1 N NaOH, 1% Bovine Serum Albumin (Sigma A-9647). Dye Loading Buffer: Assay Buffer plus 1% Fetal Bovine Serum and Fluo-4AM/Pluronic Acid Mixture. 2 mM Fluo-4AM ester stock in DMSO (Molecular Probes F-14202) Concentration of 2 μM in buffer for a final concentration of 1 μM in Assay. 20% Pluronic Acid Solution stock, with concentration of 0.04% in Buffer, 0.02% in Assay.
65 μL of 2 mM Fluo-4AM are mixed with 130 μL of 20% Pluronic Acid. The resulting solution and 650 μL FBS is added to the assay buffer for a total volume of 65 mL. Positive Controls: 4-Br-A23187: 10 mM in DMSO; final concentration 10 μM. Acetylcholine: 10 mM in water, working stock at both 20 μM and 30 µM in assay buffer, final concentration of 10 μM. This is used to check the maximum stimulation of the CHOK1/hM1 cells. 20 μM (2×) acetylcholine is added in the preincubation part of the assay, and the 30 μM (3×) stock is added in the second part. (EC20)Acetylcholine: 10 mM in water, working stock of 9 nM (3×), and final concentration in assay is 3 nM. This is used after the preincubation with test compounds. Addition of the EC20 Acetylcholine to each well with a test compound will ascertain any modulator activity. 24 wells contain 3 nM Acetylcholine alone as a control.
Determining Activity of Putative Compounds: • Screening Plate: Compounds are titrated in 96-well plates (columns 2-11), 100% DMSO, started at a concentration of 15 mM (150× stock concentration), and 3-fold serial dilutions using Genesis Freedom200 System. Four 96-well plates are combined into a 384-well plate using Mosquito Nanoliter Pipetting System by transferring 1 μl of serial diluted compounds to each well, and 1 mM acetylcholine (100× stock concentration) were added as a control. Using Temo, 49 μl assay buffer is added to each well of the 384-well plate right before assay.
In a 96-well Whatman 2 ml Uniplate, 9 nM Acetylcholine (3×) is pipetted into wells corresponding to the screening compounds, and into control wells. The 30 μM acetylcholine control (3×) is added into control wells, and the 3× agonist plate is transferred into a 384 well plate.
Cells are washed three times with 100 μL of buffer, leaving 30 μL of buffer in each well. Using Multimek, 30 μL of Dye Loading Buffer is added into each well and incubated at 37° C., 5% CO2 for up to one hr.
After 60 min, the cells are washed three times with 100 μL of buffer, leaving 30 μL of buffer in each well. The cell plate, screening plate, and agonist addition plates are placed on the platform in the FLIPR and the door closed. A signal test to check background fluorescence and basal fluorescence signal is performed. Laser intensity is adjusted if necessary. […]

SMILES	EC50 [nM]
Cc1ccc(Cc2cc3c(=O)n([C@H]4CCCC[C@@H]4O)cnc3c3ccncc23)cn1 [Example 4, 3-[(1S,2S)-2-Hydroxycyclohexyl]-6-[(6-methylpyridin-3-yl)methyl]pyrido[3,4-h]quinazolin-4(3H)-one]	41
COc1ccc(Cc2cc3c(=O)n([C@H]4CCCC[C@@H]4O)cnc3c3ccncc23)cn1 [Example 5, 3-[(1S,2S)-2-Hydroxycyclohexyl]-6-[(6-methoxypyridin-3-yl)methyl]pyrido[3,4-h]quinazolin-4(3H)-one]	110
O=c1c2cc(Cc3ccc(-n4cccn4)nc3)c3ncccc3c2ncn1[C@H]1CCCC[C@@H]1O [Example 7, 3-[(1S,2S)-2-Hydroxycyclohexyl]-6-{[6-(1H-pyrazol-1-yl)pyridine-3-yl]methyl}pyrido[2,3-h]quinazolin-4(3H)-one]	29
Cn1cc(-c2ccc(Cc3cc4c(=O)n([C@H]5CCCC[C@@H]5O)cnc4c4ccncc34)cn2)cn1 [Example 8, 3-[(1S,2S)-2-Hydroxycyclohexyl]-6-{[6-(1-methyl-1H-pyrazol-4-yl)pyridine-3-yl]methyl}pyrido[3,4-h]quinazolin-4(3H)-one]	6
O=c1c2cc(Cc3ccc(N4CCOCC4)cc3)c3cnccc3c2ncn1[C@H]1CCCC[C@@H]1O [Example 13, 3-[(1S,2S)-2-Hydroxycyclohexyl]-6-(4-morpholin-4-ylbenzyl)pyrido[3,4-h]quinazolin-4(3H)-one]	91
Cc1cc(Cc2cc3c(=O)n([C@H]4COCC[C@@H]4O)cnc3c3cccnc23)ccn1 [Example 14, 3-[(3S,4S)-4-Hydroxytetrahydro-2H-pyran-3-yl]-6-[(2-methylpyridin-4-yl)methyl]pyrido[2,3-h]quinazolin-4(3H)-one]	851

Results, then the molecule that gave them:

EC50 [nM]	SMILES
38	O=c1c2cc(Cc3ccc(Cl)nc3)c3cnccc3c2ncn1[C@H]1CCCC[C@@H]1O [Example 1, 6-[(6-Chloropyridin-3-yl)methyl]-3-[(1S,2S)-2-hydroxycyclohexyl]pyrido[3,4-h]quinazolin-4(3H)-one]
176	O=c1c2cc(Cc3ccc(Cl)nc3)c3cnccc3c2ncn1[C@H]1CCOC[C@@H]1O [Example 2, 6-[(6-Chloropyridin-3-yl)methyl]-3-[(3R,4S)-3-hydroxytetrahydro-2H-pyran-4-yl]pyrido[3,4-h]quinazolin-4(3H)-one]
71	CSc1ccc(Cc2cc3c(=O)n([C@H]4CCCC[C@@H]4O)cnc3c3ccncc23)cn1 [Example 6, 3-[(1S,2S)-2-Hydroxycyclohexyl]-6-{[6-(methylthio)pyridine-3-yl]methyl}pyrido[3,4-h]quinazolin-4(3H)-one]
64	O=c1c2cc(Cc3ccc(-c4cnccn4)nc3)c3cnccc3c2ncn1[C@H]1CCCC[C@@H]1O [Example 9, 3-[(1S,2S)-2-Hydroxycyclohexyl]-6-[(6-pyrazin-2-ylpyridin-3-yl)methyl]pyrido[3,4-h]quinazolin-4(3H)-one]
36	O=Cc1ccc(Cc2cc3c(=O)n([C@H]4CCCC[C@@H]4O)cnc3c3ccncc23)cc1 [Example 10, 4-({3-[(1S,2S)-2-Hydroxycyclohexyl]-4-oxo-3,4-dihydropyrido[3,4-h]quinazolin-6-yl}methyl)benzaldehyde]
92	CC(O)c1ccc(Cc2cc3c(=O)n([C@H]4CCCC[C@@H]4O)cnc3c3ccncc23)cc1 (stereo partly drawn) [Example 11, 3-[(1S,2S)-2-Hydroxycyclohexyl]-6-[4-(1-hydroxyethyl)benzyl]pyrido[3,4-h]quinazolin-4(3H)-one]
130	CCC(O)c1ccc(Cc2cc3c(=O)n([C@H]4CCCC[C@@H]4O)cnc3c3ccncc23)cc1 (stereo partly drawn) [Example 12, 3-[(1S,2S)-2-Hydroxycyclohexyl]-6-[4-(1-hydroxypropyl)benzyl]pyrido[3,4-h]quinazolin-4(3H)-one]
